The text below walks through data of paper PMC12040169 (PLOS Biology, 2025).

Structures are written as SMILES.

One data set in a line: in vitro. As to conditions: human, hela cells, % viability.
With `Cc1nc2c(oc3nc(-c4ccoc4)c4c(c32)CC(C)(C)OC4)c(-c2ccccc2)c1C(=O)O` [CBK265286], the viability at 28.5 h, 10 µM came out at 109%. With `CSc1nc(O)c(C(c2ccc(C(=O)O)cc2)c2c(O)nc(SC)nc2O)c(O)n1` [CBK265288], the viability at 28.5 h, 10 µM amounted to 94.8%. Same read-out and setting: the same measure for `Cc1[nH]c2ccccc2c1/C=C1/C(=N)N2C(SCc3ccccc3)=NSC2=NC1=O` [CBK265291]: 90%; for `O=C(Cc1ccccc1[N+](=O)[O-])Nc1ccc(S(=O)(=O)N2CCCC2)cc1` [CBK265292]: 87.1%. Same read-out and setting: the figure for `CCOC(=O)c1c(-c2cccs2)csc1NC(=O)CN1CCCCCC1` [CBK265294G] is 106%. Still for that read-out and setting: the figure for `Cc1cc(C)c(C)c(S(=O)(=O)N2CCN(c3ncnc4sc(C)c(C)c34)CC2)c1C` [CBK265297] is 90.2%. Take `c1ccc(-c2c(-c3ccccc3)n(Cc3ccco3)c3ncn4nc(-c5ccncc5)nc4c23)cc1` [CBK265298]: the viability at 28.5 h, 10 µM came out at 89.6%. The same measure, in the same setting: the same measure for `CC(C)C(=O)NC(c1ccc(C(C)C)cc1)c1cc([N+](=O)[O-])c2cccnc2c1O` (centres unmarked) [CBK265303]: 103%; for `Cc1ccc(S(=O)(=O)Oc2ccc(C(c3c(C)n[nH]c3O)c3c(C)n[nH]c3O)cc2)cc1` [CBK265305]: 104%; for `COc1cc(/C=N/n2c(S)nnc2-c2cccnc2)ccc1OCc1ccccc1` [CBK265307]: 110%. `Sc1nnc(COc2ccccc2)n1/N=C/c1cccnc1` [CBK265308]: the viability at 28.5 h, 10 µM stood at 103%.

On to `Cc1ccc2nc(-c3ccc(N4C(=O)CC(N5CCC(N6CCCCC6)CC5)C4=O)cc3)sc2c1` (centres unmarked) [CBK265315], for which the viability at 28.5 h, 10 µM stood at 114%. On the same count and under the same terms, the same measure for `CN(C)CCCNC(=S)NC(=O)c1ccccc1` [CBK265317]: 117%; for `COc1ccc(-c2nn(CCC(=O)O)cc2/C=C2\SC(=S)NC2=O)cc1OC` [CBK265318]: 108%. The same measure, in the same setting: the figure for `CCOC(=O)c1c(NC(=O)CCN2CCCCC2)sc2c1CCCCC2` [CBK265319G] is 89.9%; for `COc1cc(/C=N/n2c(S)nnc2C(F)(F)F)cc(Br)c1O` [CBK265321] it is 74.2%. In the case of `CCc1ccc(N(CC(=O)NCc2ccccn2)S(C)(=O)=O)cc1` [CBK265322], the viability at 28.5 h, 10 µM came to 98.8%. With `Cc1ccc(NC(=O)c2cc(NC(=O)C3CC=CCC3C(=O)O)ccc2N2CCOCC2)cc1Cl` (centres unmarked) [CBK265323], the viability at 28.5 h, 10 µM was found to be 105%. Same read-out and setting: the figure for `CC(CN1CCCCC1)OC(=O)COc1ccc(Br)cc1` (centres unmarked) [CBK265326C] is 96.9%. Regarding `CS(=O)(=O)N(Cc1ccc(Cl)cc1)c1ccc(C(=O)N2CCC(C(N)=O)CC2)cc1` [CBK265327], the viability at 28.5 h, 10 µM turned out to be 89.7%. With `O=S1(=O)C=C(SCCN2CCCCC2)c2ccccc21` [CBK265328], the viability at 28.5 h, 10 µM is 92.6%. On the same count and under the same terms, the same measure for `CS(=O)(=O)N(CC(=O)N1CCN(Cc2ccc3c(c2)OCO3)CC1)c1cccc(C(F)(F)F)c1` [CBK265329]: 77.7%; for `O=C(NC(/C=C/c1ccccc1)c1cc([N+](=O)[O-])c2cccnc2c1O)C1CCCCC1` (centres unmarked) [CBK265333]: 93%; for `Cc1nc(Nc2c(Cl)cc(S(N)(=O)=O)cc2Cl)sc1C(=O)Nc1ccccc1` [CBK265335]: 106%. The same measure, in the same setting: the figure for `Sc1nnc(-c2ccncc2)n1/N=C/c1cccnc1` [CBK265336] is 96.6%; for `Cc1ccc(S(=O)(=O)N(CC(=O)NCC2CCCO2)c2cccc(C)c2C)cc1` (centres unmarked) [CBK265339] it is 72.7%. Same read-out and setting: the figure for `O=C(NCCSCc1c(F)cccc1Cl)Nc1ccccc1` [CBK265340] is 90.2%. Consider `COc1ccc(CCNC(=O)CC2Sc3ccc(C(F)(F)F)cc3NC2=O)cc1OC` (centres unmarked) [CBK265341], for which the viability at 28.5 h, 10 µM came to 91.7%. The same measure, in the same setting: the figure for `O=C(CN(Cc1ccc(F)cc1)S(=O)(=O)c1ccc(Cl)cc1)Nc1ccc2c(c1)OCCO2` [CBK265346] is 90.2%. For the compound `CN(C)CCNc1ncnc2sc3c(c12)CCC3` [CBK265347], the viability at 28.5 h, 10 µM turned out to be 69.5%. On to `COc1cc(/C=C2\NC(=O)N(Cc3ccc([N+](=O)[O-])cc3)C2=O)ccc1OC(C)C(=O)O` (centres unmarked) [CBK265348], for which the viability at 28.5 h, 10 µM came out at 107%. On to `O=C(O)CC(NC(=O)OCc1ccccc1)c1ccccc1` (centres unmarked) [CBK265351], for which the viability at 28.5 h, 10 µM was found to be 107%. `CC(C)(C)c1ccc(OCC(=O)Nc2ccc(S(=O)(=O)N3CCc4ccccc43)cc2)cc1` [CBK265352]: the viability at 28.5 h, 10 µM turned out to be 100%. For the compound `O=C(CN(c1cccc(Cl)c1)S(=O)(=O)c1ccc(Cl)cc1)NCc1ccco1` [CBK265356], the viability at 28.5 h, 10 µM amounted to 106%.

As to `CC(=O)Nc1ccc(S(=O)(=O)Oc2ccc(/C=C3\SC(=N)NC3=O)cc2Cl)cc1` [CBK265357], the viability at 28.5 h, 10 µM is 100%. On the same count and under the same terms, the same measure for `c1ccc(Cn2c(-c3ccccc3)c(-c3ccccc3)c3c2ncn2nc(-c4cccnc4)nc32)cc1` [CBK265359]: 109%; for `Sc1nnc(COc2ccccc2)n1/N=C/c1ccncc1` [CBK265360]: 100%; for `Cc1ccc2nc(-c3ccc(N4C(=O)CC(N5CCN(CCOCCO)CC5)C4=O)cc3)sc2c1` (centres unmarked) [CBK265362]: 86.1%. Still for that read-out and setting: the figure for `O=C(CN1CCN(CCN2C(=O)c3cccc4cccc(c34)C2=O)CC1)c1ccc(Cl)cc1` [CBK265363] is 78.1%; for `COC(=O)Nc1ccc(S(=O)(=O)N2CCCC(C(=O)O)C2)cc1` (centres unmarked) [CBK265364] it is 98.5%. Regarding `COc1cccc(NC(=O)CN(c2ccccc2)S(=O)(=O)c2ccc(Cl)cc2)c1` [CBK265366], the viability at 28.5 h, 10 µM was 102%. Still for that read-out and setting: the figure for `CSc1nc(O)c(C(c2cccc([N+](=O)[O-])c2)c2c(O)nc(SC)nc2O)c(O)n1` [CBK265370] is 80.5%. `Cc1cc(NS(=O)(=O)c2ccc(NC(=O)c3ccc(Br)cc3)cc2)no1` [CBK265371]: the viability at 28.5 h, 10 µM stood at 95.6%. Same read-out and setting: the same measure for `COc1ccc(CCNC(=O)/C=C/C(=O)O)cc1OC` [CBK265373]: 103%; for `c1ccc(-c2c(-c3ccccc3)n(Cc3ccco3)c3ncn4nc(-c5cccnc5)nc4c23)cc1` [CBK265374]: 100%. In the case of `O=C(O)c1ccc(N(Cc2ccccc2)S(=O)(=O)c2ccccc2)cc1` [CBK265375N], the viability at 28.5 h, 10 µM is 92.8%. The same measure, in the same setting: the figure for `O=C(O)C(Cc1c[nH]c2ccccc12)N1C(=O)C2C3c4ccccc4C(c4ccccc43)C2C1=O` (centres unmarked) [CBK265377] is 91.4%. As to `Cc1cc(C)n2c(SCC(=O)c3ccccc3)nnc2n1` [CBK265378], the viability at 28.5 h, 10 µM amounted to 84.3%. Still for that read-out and setting: the same measure for `O=C(NCCN1CCOCC1)c1cc(-c2ccc(Cl)cc2Cl)nc2ccccc12` [CBK265379]: 113%; for `NC(=O)c1c(NC(=O)COc2ccc3ccccc3c2)sc2c1CCCCC2` [CBK265380]: 112%.

The data set is the same for the next values; noted with them: human, hela cells, % viability, bulk resorufin, single well.
Take `O=C(O)CCn1cc(C=C2C(=O)NC(=S)NC2=O)c(-c2cc3ccccc3oc2=O)n1` [CBK265293]: the viability at 28.5 h, 10 µM stood at 91.8%. On the same count and under the same terms, the figure for `Oc1ccc(Br)cc1C(c1c(O)nc(S)nc1O)c1c(O)nc(S)nc1O` [CBK265367] is 103%; for `COc1ccc(CCN2C(=O)NC(=O)/C(=C\c3c(C)[nH]c4ccccc34)C2=O)cc1OC` [CBK265368] it is 81.6%.

In general, viability refers to a read-out of living cells in per cent, often relative to untreated cells.
